This note sets out measurements from PubChem BioAssay (NCI).

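Tested at 5 concentrations; 48 h exposure; 96-well plates; endpoints linearly interpolated, else capped at highest concentration. The concentration for 50% growth inhibition is given as GI50. TGI denotes the concentration required for complete inhibition of growth.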

Some test systems named below: DMS 114 small cell lung; KM20L2 colon; M19-MEL melanoma; DLD-1 colon; HOP-18 NSCLC; LXFL 529 NSCLC; XF 498 CNS; DU-145 prostate; MDA-MB-231 breast; MDA-MB-435; PC-3 prostate.
What all share (assay): inhibition of tumour cell growth, NCI panel, 48 h

Regarding `Cc1cc(N(CCC#N)CCC#N)ccc1N=Nc1ccc([N+](=O)[O-])cc1`, the results for the TGI with DMS 114 small cell lung, with KM20L2 colon and in the experiment with M19-MEL melanoma were 33 µM, over 100 µM and over 100 µM, respectively.
On to `Cc1cc(C)c2c(c1C)CN1CN2Cc2c(C)c(C)cc(C)c21`, for which the TGI with DLD-1 colon is over 100 µM; with DMS 114 small cell lung, 44.1 µM; in the experiment on HOP-18 NSCLC, over 100 µM; with LXFL 529 NSCLC it was over 100 µM; in the experiment with M19-MEL melanoma, over 100 µM.
Take `CC(=O)OCC1OC(n2cnc3c(I)nc(I)nc32)C(OC(C)=O)C1OC(C)=O` (centres undefined): the TGI in the experiment with DLD-1 colon came to 24.2 µM; in the experiment with DMS 114 small cell lung, 13.1 µM; in the experiment on KM20L2 colon, 32.7 µM; in the experiment with LXFL 529 NSCLC, 26.1 µM; in the experiment with M19-MEL melanoma, 12.2 µM; in the experiment on XF 498 CNS, 35.9 µM.
In the case of `Nc1ncn([C@@H]2C=C(CO)C(O)C2O)c(=O)n1` (some centres undefined), the TGI in the experiment on DLD-1 colon, in the experiment with HOP-18 NSCLC, in the experiment on KM20L2 colon, with LXFL 529 NSCLC, in the experiment on M19-MEL melanoma and in the experiment on XF 498 CNS was over 100 µM in each case.
Take `CC/C(=C(/CC)c1ccc(OP(=O)([O-])[O-])cc1)c1ccc(OP(=O)([O-])[O-])cc1.N.N.N.N.[Pt+4].[Pt+4]`: the GI50 in the experiment with DLD-1 colon was 9.51 µM; in the experiment on HOP-18 NSCLC, 59 µM; in the experiment on KM20L2 colon, 26.1 µM; in the experiment with LXFL 529 NSCLC, 14 µM. Moreover, the TGI in the experiment on DLD-1 colon was over 100 µM; with HOP-18 NSCLC it was over 100 µM; in the experiment with KM20L2 colon, over 100 µM; with LXFL 529 NSCLC it was 31.6 µM.
`O=[N+]([O-])c1ccc(N=Nc2c(O)[nH]c3ccc(Br)cc23)c([N+](=O)[O-])c1`: the TGI in the experiment with DLD-1 colon stood at 20.4 µM; in the experiment with HOP-18 NSCLC, 4.69 µM; in the experiment on KM20L2 colon it was 13.4 µM; with LXFL 529 NSCLC it was 13.9 µM; in the experiment on M19-MEL melanoma it was 9.91 µM.
With `COc1ccc(C(=O)Nc2ccccc2C#N)cc1`, the TGI in the experiment with DLD-1 colon, with HOP-18 NSCLC, in the experiment on KM20L2 colon, in the experiment on M19-MEL melanoma and with XF 498 CNS was over 100 µM in each case.
As to `COc1ccc(C(=O)Nc2ccccc2)cc1[N+](=O)[O-]`, the TGI in the experiment with DLD-1 colon, with DMS 114 small cell lung, in the experiment with KM20L2 colon, in the experiment with LXFL 529 NSCLC, in the experiment on M19-MEL melanoma and with XF 498 CNS was over 100 µM in each case.
In the case of `CCOC(=O)C1=C(O)CSC1=Nc1ccc(N=C2SCC(O)=C2C(=O)OCC)cc1`, the TGI with DLD-1 colon is 50.4 µM; in the experiment on DMS 114 small cell lung it was 59.6 µM; with KM20L2 colon it was over 100 µM; in the experiment with LXFL 529 NSCLC it was 57.9 µM; in the experiment with M19-MEL melanoma, 61.2 µM; with XF 498 CNS it was 42 µM.
Consider `CNS(=O)(=O)NN(C)S(=O)(=O)c1ccc(C)cc1`, for which the TGI with DLD-1 colon, in the experiment on DMS 114 small cell lung, with KM20L2 colon and in the experiment on M19-MEL melanoma was over 100 µM in each case.
`COC(=O)C12C3C=CC(O3)C1C1C=CC2O1` (centres undefined): the TGI in the experiment with DLD-1 colon, in the experiment with HOP-18 NSCLC, in the experiment on KM20L2 colon, in the experiment on LXFL 529 NSCLC, with M19-MEL melanoma and with XF 498 CNS was over 100 µM in each case.
Regarding `S=c1nc(/C=C/c2ccc(Cl)c(Cl)c2)[nH][nH]1`, the TGI in the experiment with DLD-1 colon is over 100 µM; in the experiment on DMS 114 small cell lung it was 0.12 µM; in the experiment with DU-145 prostate, over 100 µM; with KM20L2 colon it was over 100 µM; in the experiment on MDA-MB-231 breast it was over 100 µM; in the experiment with MDA-MB-435 it was over 100 µM. For the same molecule, the TGI in the experiment with PC-3 prostate is over 100 µM; with XF 498 CNS, 95.5 µM. Also, the GI50 in the experiment on DU-145 prostate was over 100 µM; in the experiment with MDA-MB-231 breast, 79 µM; with MDA-MB-435, 86.7 µM; in the experiment with PC-3 prostate, 53.4 µM.
As for `COC(=O)C1(c2ccc(OC)cc2)NC(c2ccccc2)C2C(=O)N(c3ccc(OC)cc3)C(=O)C21` (centres undefined), the TGI in the experiment with DLD-1 colon, with DMS 114 small cell lung, with KM20L2 colon, with LXFL 529 NSCLC and with XF 498 CNS was over 100 µM throughout.
Take `COc1ccccc1NS(=O)(=O)c1cc(C(C)(C)C)ccc1OCCOc1ccc(C(C)(C)C)cc1S(=O)(=O)Nc1ccccc1OC`: the TGI with DLD-1 colon, in the experiment with DMS 114 small cell lung, in the experiment with HOP-18 NSCLC and in the experiment with M19-MEL melanoma was over 100 µM in each case.
On to `CCOC(=O)C12CN(C34CC5CC(CC(C5)C3)C4)CC(C(=O)OCC)(C1=O)C(c1ccccc1)OC2c1ccccc1` (centres undefined), for which the TGI with DLD-1 colon, in the experiment on DMS 114 small cell lung, in the experiment on KM20L2 colon, in the experiment with LXFL 529 NSCLC, in the experiment on M19-MEL melanoma and in the experiment on XF 498 CNS was over 100 µM throughout.
With `Cn1c(=O)c2c(nc3n2C(CCl)CO3)n(C)c1=O` (centres undefined), the TGI with DLD-1 colon, with DMS 114 small cell lung, in the experiment with HOP-18 NSCLC and in the experiment on M19-MEL melanoma was over 100 µM throughout.
Consider `CCCCCNC(=O)C1C(=O)N(CCCCC)C(=O)/C1=N\N` (centres undefined), for which the TGI in the experiment with DLD-1 colon, in the experiment on HOP-18 NSCLC, in the experiment on KM20L2 colon, with LXFL 529 NSCLC and with M19-MEL melanoma was over 100 µM in each case.
On to `CC1=C(C(=O)Nc2cc(F)c(F)cc2F)C(c2cccc([N+](=O)[O-])c2)C(C(=O)Nc2ccccc2C(F)(F)F)=C(C)N1` (centres undefined), for which the TGI in the experiment with DLD-1 colon was determined as 94.7 µM; in the experiment with DMS 114 small cell lung it was 57 µM; in the experiment with KM20L2 colon, 78.4 µM; in the experiment with LXFL 529 NSCLC it was 53.1 µM; with M19-MEL melanoma, 91.5 µM.
As to `CC1(C)CC(C2CC(C)(C)CC(C)(C)[C@H]2O)[C@@H](O)C(C)(C)C1` (some centres undefined), the TGI in the experiment on DMS 114 small cell lung, with KM20L2 colon, in the experiment on LXFL 529 NSCLC, in the experiment with M19-MEL melanoma and in the experiment on XF 498 CNS was over 100 µM in each case.
In the case of `Nc1ccc(C(=O)O)c2[nH]c3ccccc3c(=O)c12`, the TGI with DLD-1 colon, in the experiment on DMS 114 small cell lung, in the experiment with HOP-18 NSCLC, with KM20L2 colon, with LXFL 529 NSCLC and in the experiment on M19-MEL melanoma was over 100 µM each time.
Turning to `O=C1NCC2=C1CCC1c3ccccc3CCN21` (centres undefined), the TGI in the experiment on DLD-1 colon, with DMS 114 small cell lung, in the experiment on KM20L2 colon, in the experiment with LXFL 529 NSCLC, with M19-MEL melanoma and in the experiment on XF 498 CNS was over 100 µM throughout.
`COc1ccc(C=O)c(N(C)C(=O)C(C)(C)C)c1`: the TGI in the experiment with DMS 114 small cell lung, in the experiment on HOP-18 NSCLC, in the experiment with KM20L2 colon, with M19-MEL melanoma and in the experiment on XF 498 CNS was over 100 µM in each case.
Consider `Cc1ccc(S(=O)(=O)OC(C=O)C(O)C(O)COC(c2ccccc2)(c2ccccc2)c2ccccc2)cc1` (centres undefined), for which the TGI in the experiment with DMS 114 small cell lung was found to be 33.8 µM; with KM20L2 colon, 27.4 µM; in the experiment on LXFL 529 NSCLC, 25.7 µM; in the experiment on M19-MEL melanoma it was 26.1 µM; in the experiment on XF 498 CNS, 29.2 µM.
Take `COC(=O)CC(CC(=O)C(=O)OC)C(=O)OC` (centres undefined): the TGI in the experiment on DLD-1 colon, with KM20L2 colon and with LXFL 529 NSCLC was over 100 µM in each case.
For the molecule `CCN(CC)c1ccc(/C=C/C2=[N+](C)c3ccccc3C2(C)C)cc1`, the GI50 in the experiment on DU-145 prostate is 0.492 µM; with MDA-MB-231 breast, 0.701 µM; in the experiment with MDA-MB-435 it was 0.288 µM; in the experiment with PC-3 prostate, 0.167 µM. Further, the TGI amounted to 19 µM with DU-145 prostate, 6.48 µM in the experiment on MDA-MB-231 breast, 4.91 µM with MDA-MB-435 and 31.7 µM with PC-3 prostate.
On to `C=C(CNCCc1ccc(O)cc1)[C@@H]1CC[C@]2(CO)CC[C@]3(C)[C@H](CC[C@@H]4[C@@]5(C)CCC(NCCO)C(C)(C)[C@@H]5CC[C@]43C)[C@@H]12` (some centres undefined), for which the GI50 with DU-145 prostate is 1.6 µM; in the experiment on MDA-MB-231 breast, 1.33 µM; in the experiment with MDA-MB-435, 1.51 µM; in the experiment on PC-3 prostate, 1.6 µM. In addition, the TGI with DU-145 prostate is 3.04 µM; in the experiment with MDA-MB-231 breast, 2.74 µM; with MDA-MB-435, 2.97 µM; with PC-3 prostate, 3.29 µM.
With `Cc1ccc(NC(=O)CCC(=O)C2CC(=O)CCC2=O)cc1C` (centres undefined), the TGI with DLD-1 colon, in the experiment on DMS 114 small cell lung, with HOP-18 NSCLC, in the experiment on KM20L2 colon, in the experiment on LXFL 529 NSCLC and in the experiment on M19-MEL melanoma was over 100 µM in each case.
As for `CC1OC(OC2C(OC3CCC4(C)C(CCC5(C)C4CC=C4C6CC(C)(C)CCC6(CO)C(O)CC45C)C3(C)C)OC(C(=O)O)C(OC3OC(COC4OC(CO)C(O)C(O)C4O)C(O)C(O)C3O)C2O)C(O)C(O)C1O` (centres undefined), the GI50 in the experiment on DU-145 prostate was 13.4 µM; in the experiment with MDA-MB-231 breast it was 10.8 µM; in the experiment with MDA-MB-435, 4.34 µM; in the experiment with PC-3 prostate, 1.56 µM. The TGI is 25.1 µM in the experiment with DU-145 prostate, 21.8 µM in the experiment with MDA-MB-231 breast, 14.7 µM in the experiment with MDA-MB-435 and 3.92 µM with PC-3 prostate.
As for `Cc1nc(N=C(N)N)nc2ccc3ccccc3c12`, the GI50 with DU-145 prostate was 1.53 µM; in the experiment with MDA-MB-231 breast it was 1.25 µM; in the experiment on MDA-MB-435, 1.28 µM; in the experiment on PC-3 prostate it was 1.26 µM. Also, the TGI in the experiment with DU-145 prostate turned out to be 5.31 µM; in the experiment with MDA-MB-231 breast, 3.2 µM; with MDA-MB-435 it was 2.77 µM; in the experiment with PC-3 prostate, 4.1 µM.
